Results reported in paper PMC11862990, “Utility of 6-aza-2-thiothymine in the synthesis of novel [1,2,4]triazolo[4,3-b][1,2,4]triazin-7-one derivatives: synthesis, structure elucidation, molecular docking and in vitro anti-lung cancer activity” (RSC Advances, 2025).
“And” between values parts separate entries of the source, which are not always exact repeats. Identical values can stand only once.

Columns and labels:
A549 (lung carcinoma) = assay: MTT cytotoxicity assay, A549; assay type: cell-based; details: Homo sapiens, A549, MTT; for cytotoxicity at 100 µg/mL: 100 μg ml^−1, 48 hours, read-out: (%) Mortality A549
Method: (§1) Using specific human cancer cell lines, the anti-proliferative effectiveness of compounds 7a–j was evaluated in an in vitro assay. The anti-cancer activity of these compounds (7a–j) on various cancer cell lines, including PC3 (Prostate cell line), A549 (Lung carcinoma), PACA2 (Pancreatic cancer cell line) and BJ1 (normal skin fibroblast), was investigated in this study using the 3-(4,5-dimethylthiazol-2-yl)-2,5-diphenyltetrazolium bromide (MTT) test. Doxorubicin (Dox) was the standard medication used as a positive control.
(§2) All incubations were performed at 37 °C in a 5% CO2 incubator with a 95% humidified environment (Sheldon, TC2323; Cornelius, OR, USA). 96-well micro titer polypropylene plates were seeded with cells at a density of 10^4 cells per well in complete DMEM media, and the cells were allowed to adhere for 24 hours. After the media was aspirated, the tested compounds were added to the cells in a single dose of 100 μg ml^−1 in DMSO. Each well received 40 μl of MTT salt (2.5 g ml^−1) following a 48 hour incubation period. 200 μl of 10% sodium dodecyl sulfate (SDS) was added to each well after the reaction ended, and any formazan crystals that could have been produced were dissolved by two hours of incubator heating to 37 °C. The amount of formazan product was measured at 595 nm using a microplate reader (Bio-Rad Laboratories, model 3350, California, USA) with a reference wavelength of 690 nm, serving as a backdrop. Rather than the drugs under investigation, the medium was applied to the untreated cells (negative control). The examined compounds were dissolved in dimethylsulfoxide (DMSO), and the final concentration in the cells was less than 0.2%. For each compound and the control, the solvent concentration was the same.

PC3 (prostate cell line) = assay: MTT cytotoxicity assay, PC3; assay type: cell-based; details: Homo sapiens, 100 μg ml^−1, 48 hours, MTT, read-out: (%) Mortality PC3
Method: as §1, §2

[1] = tested on: PACA2 (pancreatic cancer cell line); assay: MTT cytotoxicity assay, PACA2; assay type: cell-based; details: Homo sapiens, PaCa-2; 100 μg ml^−1, 48 hours, MTT; read-out: (%) Mortality PACA2
Method: as §1, §2

[2] = tested on: BJ1 (normal skin fibroblast); details: 100 μg ml^−1, 48 hours, MTT
Method: Using specific human cancer cell lines, the anti-proliferative effectiveness of compounds 7a–j was evaluated in an in vitro assay. The anti-cancer activity of these compounds (7a–j) on various cancer cell lines, including PC3 (Prostate cell line), A549 (Lung carcinoma), PACA2 (Pancreatic cancer cell line) and BJ1 (normal skin fibroblast), was investigated in this study using the 3-(4,5-dimethylthiazol-2-yl)-2,5-diphenyltetrazolium bromide (MTT) test.
In the initial screening trial, a single dosage concentration of 100 μg ml^−1 was applied for 48 hours. The cytotoxicity of the treated cells was determined by calculating the cell death percentage (% mortality) as a percentage of untreated cells (Table 2).
Cell viability was tested using the MTT assay, 3-(4,5-dimethylthiazol-2-yl)-2,5-diphenyl-tetrazolium bromide (Bio Basic Canada Inc. Toronto, Canada).[26] Under class II biosafety regulations, the procedures were carried out in a sterile laminar air flow cabinet (Baker, SG403INT; Sanford, ME, USA). Cell lines were obtained from the American type culture collection (ATCC) as a gift from Dr Stig Linder, Karonisca Institute, Sweden. All incubations were performed at 37 °C in a 5% CO2 incubator with a 95% humidified environment (Sheldon, TC2323; Cornelius, OR, USA). 96-well micro titer polypropylene plates were seeded with cells at a density of 10^4 cells per well in complete DMEM media, and the cells were allowed to adhere for 24 hours. After the media was aspirated, the tested compounds were added to the cells in a single dose of 100 μg ml^−1 in DMSO. Each well received 40 μl of MTT salt ([…]) following a 48 hour incubation period. 200 μl of 10% sodium dodecyl sulfate (SDS) was added to each well after the reaction ended, and any formazan crystals that could have been produced were dissolved by two hours of incubator heating to 37 °C. The amount of formazan product was measured at 595 nm using a microplate reader (Bio-Rad Laboratories, model 3350, California, USA) with a reference wavelength of 690 nm, serving as a backdrop. Rather than the drugs under investigation, the medium was applied to the untreated cells (negative control). The examined compounds were dissolved in dimethylsulfoxide (DMSO), and the final concentration in the cells was less than 0.2%. For each compound and the control, the solvent concentration was the same.

Structure (SMILES) | cytotoxicity at 100 µg/mL (A549 (lung carcinoma)) [%] | cytotoxicity at 100 µg/mL (PC3 (prostate cell line)) [%] | cytotoxicity at 100 µg/mL [1] [%] | (%) Mortality BJ1 (cytotoxicity percentage on normal cells) [2] | IC50 (A549 (lung carcinoma); 48 hour incubation) [µM]
CCc1nn(-c2ccc([N+](=O)[O-])cc2)c2nc(=O)c(C)nn12 [Compound 7b, 3-Ethyl-6-methyl-1-(4-nitrophenyl)-[1,2,4]triazolo[4,3-b][1,2,4]triazin-7(1H)-one] | 35.2 ± 1.22 | 24.5 ± 0.57 | 3.6 ± 0.21 | 4.2 ± 0.98% | 
CCCc1nn(-c2ccc([N+](=O)[O-])cc2)c2nc(=O)c(C)nn12 [Compound 7c, 6-Methyl-1-(4-nitrophenyl)-3-propyl-[1,2,4]triazolo[4,3-b][1,2,4]triazin-7(1H)-one] | 22.9 ± 0.81 | 27.3 ± 1.2 | 10.5 ± 0.61 | 1.6 ± 0.38% | 
Cc1nn2c(C(C)C)nn(-c3ccc([N+](=O)[O-])cc3)c2nc1=O [Compound 7d, 3-Isopropyl-6-methyl-1-(4-nitrophenyl)-[1,2,4]triazolo[4,3-b][1,2,4]triazin-7(1H)-one] | 33.3 ± 0.22 | 17.9 ± 0.38 | 11.5 ± 0.25 | 36.2 ± 1.11% | 
Cc1nn2c(CC(C)C)nn(-c3ccc([N+](=O)[O-])cc3)c2nc1=O [Compound 7e, 3-Isobutyl-6-methyl-1-(4-nitrophenyl)-[1,2,4]triazolo[4,3-b][1,2,4]triazin-7(1H)-one] | 86.3 ± 0.74 | 35.1 ± 1.11 | 8.6 ± 0.33 | 6.4% and 6.4 ± 0.85% | 42.5
Cc1ccc(-c2nn(-c3ccccc3)c3nc(=O)c(C)nn23)cc1 [Compound 7f, 6-Methyl-1-phenyl-3-(p-tolyl)-[1,2,4]triazolo[4,3-b][1,2,4]triazin-7(1H)-one] | 69.1 ± 0.77 | 33.4 ± 1.18 | 5.6 ± 0.11 | 3.2% and 3.2 ± 0.63% | 
Cc1nn2c(-c3ccc(Cl)cc3)nn(-c3ccccc3)c2nc1=O [Compound 7h, 3-(4-Chlorophenyl)-6-methyl-1-phenyl-[1,2,4]triazolo[4,3-b][1,2,4]triazin-7(1H)-one] | 13.5 ± 0.33 | 24.2 ± 0.21 | 21.3 ± 0.98 | 9.6 ± 0.93% | 
Cc1nn2c(-c3ccco3)nn(-c3ccc([N+](=O)[O-])cc3)c2nc1=O [Compound 7i, 3-(Furan-2-yl)-6-methyl-1-(4-nitrophenyl)-[1,2,4]triazolo[4,3-b][1,2,4]triazin-7(1H)-one] | 14.2 ± 0.24 | 18.4 ± 1.14 | 9.6 ± 1.33 | 2.9 ± 1.22% | 
Cc1nn2c(-c3cccs3)nn(-c3ccc([N+](=O)[O-])cc3)c2nc1=O [Compound 7j, 6-Methyl-1-(4-nitrophenyl)-3-(thiophen-2-yl)-[1,2,4]triazolo[4,3-b][1,2,4]triazin-7(1H)-one] | 32.8 ± 0.54 | 15.9 ± 0.51 | 7.2 ± 0.88 | 3.8 ± 0.77% | 
